Measured values published in patent US8895805B2, “Method for modifying insect resistance of plants by utilizing RNAi technique” (Shanghai Institutes for Biological Sciences, Chinese …, priority 2006, dated 2014).

System: GST1 gene
Experiment: GST1 gene expression in the mesenteron after artificial diet containing gossypol
Format: in vivo, cotton bollworm
Conditions: 5-day old larvae, 1 day, artificial diet with 1 mg/g gossypol (FIG. 7A)
Protocol: FIG. 7A show the change in GST 1 gene expression in the mesenteron of 5-day old cotton bollworm with the same growth vigor 1 day after eating artificial diet containing 1 mg/g gossypol. Lane 1 and 2 are cotton bollworm eating artificial diet with or without 1 mg/g gossypol respectively.

**Q.** With `Cc1cc2c(C(C)C)c(O)c(O)c(C=O)c2c(O)c1-c1c(C)cc2c(C(C)C)c(O)c(O)c(C=O)c2c1O` [gossypol] as the molecule, how does the “GST1 gene expression in the mesenteron” value read?
**A.** no significant effect
